Here are results for 16 compounds from patent US4997835A, “Substituted 2-acylpyridine-α-(N)-hetarlyhydrazones and medicaments containing the same” (priority 1987, dated 1991).

The subject of data set [1] is Sierra Leone D-6 (parasitic malaria strain). In words: Growth of malaria strain Sierra Leone D-6. The format is cell-based. The settings on record: for IC50: read-out: I50; for IC90: read-out: I90. The source says: (§1) Determination of the semimaximum inhibiting concentration (I50) of typical representatives of the inventive compounds for the growth of parasitic malaria strains:
(§2) The determination took place according to the standard process (cf. WHO determination process).
(§3) The process according to Example 35 was repeated with the difference that the semimaximum inhibiting concentration of combinations of the inventive compound PH 22 with (2), (3) inhibitors of dihydrofolic acid reductase, (4) inhibitors of folate synthase and dihydrofolic acid reductase and (5), (6) inhibitors of DNA-synthesis were determined.

Data set [2] deals with Indochina W-2 (parasitic malaria strain). In words: Growth of malaria strain Indochina W-2. The class given is cell-based. Particulars: for IC50: read-out: I50; for IC90: read-out: I90.
Source text: as §1, §2, §3

Data set [3] relates to human mammary tumour cell line MDA-MB231. In words: Inhibition of thymidine incorporation into DNA. The format is cell-based. The settings on record: MDA-MB-231, read-out: 50% Inhibition of thymidine incorporation. The protocol: (§4) The semimaximum inhibition of cellnumber increase and thymidine incorporation into DNA was determined on the […], human mammary tumour cell line MDA-MB231 (cf. H. D. Soule et al, J. Nat. Cancer Inst., 51, p.1409, 1973) according to the method described by H. Seidenberger, G. Kranzfelder, S. Wappes, H. Schonenberger, W. Beck and M. Girth, Arch. Pharm. 314, 955, 1981 and M. Lippman, M. E. Monaco and G. Bolan, Cancer Res. 37, 1901, 1977.
In general terms: Uptake of a labelled nucleoside into DNA is a usual measure of proliferation.

The test system of data set [4] is Mycobacterium lufu. In words: Minimum inhibiting concentration, M. lufu L 209. The format is cell-based. The settings on record: for MIC: Mycobacterium lufu.
Data set [5] concerns Mycobacterium avium SN 304. In words: Minimum inhibiting concentration, M. avium SN 304. The class given is cell-based.
The subject of data set [6] is human mammary tumour cell line MDA-MB231. In words: Inhibition of cellnumber increase. The class given is cell-based. The settings on record: MDA-MB-231, read-out: 50% Inhibition of cellnumber increase, I50. On the procedure: as §4
The subject of data set [7] is Mycobacterium tuberculosis H 37 RV. In words: Minimum inhibiting concentration, M. tuberculosis H37RV. The format is cell-based. Particulars: M. tub. H37RV; for MIC: Mycobacterium tuberculosis. The protocol: The minimum inhibiting concentration of the commercially available and inventive substances given in Table 2 was determined according to the known standard process ("Methods for sensitivity testing of bacterial infectious germs", DIN 58940, part 5).
The determination was carried out on the following bacterial cultures:
2. Mycobacterium tuberculosis H 37 RV, FIB 2-85 JS
For culturing the bacterial cultures use was made of nutrient substrates according to Gottsacker and Lowenstein Jensen and culture media according to Lockemann or Dubos-Davis (cf. "Detection processes for mycobacteria from test material, III, culture medium formulations for culturing tuberculosis bacteria", 1978, Publisher: Deutsches Zentralkomitee zur Bekampfung der Tuberculose, Poppenhusenstrasse 14c, 2000 Hamburg 60).
In each case 5×10^-3 to 5×10^-5 mg, based on the wet weight, of the mycobacterial strains were incubated in 2 ml of culture fluid (Lockemann +0.5 wt/vol. % bovine serum albumen fraction 5) at 31° C. with a graded concentration of the particular inhibitor (dilution series). The culture tubes were read off after 8 to 15 days, as a function of the bacterial strain.
The MIC is the inhibitor concentration in μMol/l at which no propagation of the sewn cells is observed.

The subject of data set [8] is Mycobacterium marinum SN 1254. In words: Minimum inhibiting concentration, M. marinum SN1254. The format is cell-based.
Data set [9] concerns Mycobacterium smegmatis ATCC 607. In words: Minimum inhibiting concentration, M. smegmatis ATCC 607. The class given is cell-based. The settings on record: for MIC: Mycolicibacterium smegmatis.
The test system of data set [10] is Mycobacterium avium Patient Strain (Birk). In words: Minimum inhibiting concentration, M. avium Patient Strain (Birk). The format is cell-based. The settings on record: for MIC: Mycobacterium avium, read-out: Minimum inhibiting concentration.
For data set [11] the following is noted: Mouse, cited from earlier work.
The test system of data set [12] is lymphatic leukaemia P388. The settings on record: C. Pellerano et al, Il Farmaco 1985; cited from earlier work.
For data set [13], the system named is M. leprae. In words: Propagation of M. leprae in mouse paws. The format is in vivo. The settings on record: two months in feed; DDS 0.0001%, Rifampicin 0.001%, K-130 0.01%, Brodimoprim 0.01%, PH 22-26 0.05%. The protocol: The therapeutic action was determined as a reduction of the number of acid-resistant bacteria in the mouse paw according to C. C. Shepard, J. Experim. Met., 112, p. 445, 1960.
It is possible to detect the synergistic effect of the combinations, even under in vivo conditions.

Data set [14] relates to M. leprae. In words: In vitro propagation of M. leprae, thymidine incorporation. The format is cell-based. Particulars: Mycobacterium leprae, read-out: % Reduction Thymidine incorporation; for inhibition of growth at 10000 µg/mL: 10 mg/ml.
Method: The inhibiting action was determined as a reaction of the thymidine absorption and the ATP content in M. Leprae suspensions, in the manner described by A. M. Dhople, Med. Sci. Res., 15, p.
[15] abbreviates: SN304, M. avium SN 304, read-out: Minimum inhibiting concentration.
The mark [16] stands for this setting: M. marin. SN1254, read-out: Minimum inhibiting concentration.
The mark [17] stands for this setting: ATCC607, M. smegm. ATCC 607, read-out: Minimum inhibiting concentration.

Converted amounts (≈) assume the structure as drawn. Where two headings read alike, the source gives them in different places.

`C(=NNc1ccc2ccccc2n1)c1ccccn1` [PQ 22, pyridine-2-aldehyde-2'-quinolylhydrazone]: the IC50 in data set [1] stood at 1500 nM; in data set [2], 1100 nM; in [3], 157 nM; in [6] it was 321 nM. Also, the figures for the IC90 in [1] and in data set [2] were 2000 nM and 1700 nM, respectively. The MIC came out at 10 µM (≈ 2.48 µg/mL) in [4]; 24 µM (≈ 5.96 µg/mL) in data set [5] (setting [15]); 28 µM (≈ 6.95 µg/mL) in data set [7]; 12 µM (≈ 2.98 µg/mL) in data set [8] (setting [16]); 21 µM (≈ 5.21 µg/mL) in data set [9] (setting [17]).

As to `CC(=O)Nc1ccc(C=NNC(N)=S)cc1` [Conteben, 4-acetylaminobenzaldehyde-thiosemicarbazone, reference compound], the results for the MIC in [10] (M. avium Patient str.), in data set [4] and in [7] were 35 µM, 339 µM (≈ 80.1 µg/mL) and 4 µM (≈ 0.945 µg/mL), respectively. In addition, the LD50 in data set [11] (p.o., Comptes Rendus Soc. Biol. 1310 (1950)) was 950 mg/kg body weight; in data set [11] (subc., J. Pharm. Pharmacol. 2, 764 (1950)), 1000-2000 mg/kg body weight.

In the case of `NC(=NNc1ccccn1)c1ccccn1` [PH 22-12, pyridine-2-carboxylic acid 2'-pyridyl-amidrazone], the IC50 in data set [1] was 1500 nM; in data set [2], 6300 nM; in [3], 330 nM; in data set [6], 460 nM. In addition, the IC90 in data set [1] was determined as 4300 nM; in data set [2], 41000 nM.

Turning to `NC[C@H]1O[C@H](O[C@H]2[C@H](O)[C@@H](O[C@H]3O[C@H](CO)[C@@H](O)[C@H](N)[C@H]3O)[C@H](N)C[C@@H]2N)[C@H](O)[C@@H](O)[C@@H]1O` [Kanamycin, reference compound], the MIC in [10] is 17 µM; in [5] (SN304, read-out: Minimum inhibiting concentration), 33 µM (≈ 16 µg/mL).

Regarding `CC(=NNc1ccccn1)c1ccccn1` [PH 22-2, 2-acetylpyridine-2'-pyridylhydrazone], the MIC worked out at 132 µM in data set [10] (M. avium Patient str.); 33 µM (≈ 7 µg/mL) in [4]; 48 µM (≈ 10.2 µg/mL) in data set [7]; 28 µM (≈ 5.94 µg/mL) in data set [8] (setting [16]); 24 µM (≈ 5.09 µg/mL) in data set [9] (setting [17]). Besides, in [12], the “in vivo treatment of lymphatic leukaemia P388” value is “ineffective”.

With `COc1cc(Cc2cnc(N)nc2N)cc(OC)c1OCCCNc1ccc(S(=O)(=O)c2ccc(N)cc2)cc1` [K-130, 2,4-diamino-5-{4-[3-(4'-aminophenyl-4-sulphonylphenylamino)-propoxy]-3,5-dimethoxybenzyl}-pyrimidine], the “% Inhibition of propagation of M. leprae in mouse paws” value (“% Inhibition” for short) in [13] was found to be 56%. For the same compound, the inhibition of growth at 10000 µg/mL in data set [14] amounted to 0%. Besides, in data set [14] (20 mg/ml), the inhibition of growth at 20000 µg/mL came out at 65%.

As for `c1ccc(C(=NNc2nncc3ccccc23)c2ccccn2)cc1` [PH 22-22, 2-benzoylpyridine-1'-phthalazinylhydrazone], the MIC was found to be 86 µM in [10] (M. avium Patient str.); 2.3 µM (≈ 0.748 µg/mL) in [4]; 18.5 µM (≈ 6.02 µg/mL) in data set [7]; 10.8 µM (≈ 3.51 µg/mL) in [8] (setting [16]); 12.3 µM (≈ 4 µg/mL) in data set [9] (setting [17]).

As for `CO[C@H]1/C=C/O[C@@]2(C)Oc3c(C)c(O)c4c(O)c(c(/C=N/N5CCN(C)CC5)c(O)c4c3C2=O)NC(=O)/C(C)=C\C=C\[C@H](C)[C@H](O)[C@@H](C)[C@@H](O)[C@@H](C)[C@H](OC(C)=O)[C@@H]1C` [Rifampicin], the figures for the MIC in data set [10] (M. avium Patient str.) and in [5] (setting [15]) were 5 µM and 39 µM (≈ 32.1 µg/mL), respectively. In addition, in data set [13], the “% Inhibition” value turned out to be 19%. For the same compound, the inhibition of growth at 50000 µg/mL in [14] (50 mg/ml) was determined as 2%. The inhibition of growth at 100000 µg/mL in data set [14] (100 mg/ml) turned out to be 0%.

Turning to `CC(=NN(c1ccccn1)c1ccc2ccccc2n1)c1ccccn1` [PH 22-4, 2-acetylpyridine-2'-pyridyl-2'-quinolylhydrazone], the Minimum inhibiting concentration in data set [10] (M. avium Patient str.) was 58 μM/1; in data set [4], 6,7 μM/1; in [7], 4,8 μM/1; in [9] (M. smegm. ATCC 607), 15 μM/1. For the same compound, the “in vivo treatment of lymphatic leukaemia P388” value in data set [12] is recorded as “ineffective”.

As to `Cc1ccnc(C=NNc2ccccn2)c1` [PH 22-7, 4-methyl-pyridine-2-aldehyde-2'-pyridylhydrazone], the IC50 is 159 nM in data set [3] and 278 nM in data set [6]. Also, the MIC in [4] came to 57 µM (≈ 12.1 µg/mL); in [7] it was 113 µM (≈ 24 µg/mL); in data set [8] (SN1254, read-out: Minimum inhibiting concentration), 113 µM (≈ 24 µg/mL); in data set [9] (ATCC607, read-out: Minimum inhibiting concentration), 113 µM (≈ 24 µg/mL).

In the case of `C(=NNc1nncc2ccccc12)c1ccc(OCc2ccccc2)cn1` [PH 22-6, 5-benzyloxypyridine-2-aldehyde-1'-phthalazinylhydrazone], the MIC was found to be 7 µM in data set [10] (M. avium Patient str.); 5.6 µM (≈ 1.99 µg/mL) in data set [4]; 8.5 µM (≈ 3.02 µg/mL) in data set [7]; 7 µM (≈ 2.49 µg/mL) in data set [8] (setting [16]); 40 µM (≈ 14.2 µg/mL) in data set [9] (setting [17]).

With `Nc1ccc(S(=O)(=O)c2ccc(N)cc2)cc1` [DDS, 4,4'-diaminodiphenylsulphone], the “% Inhibition” value in [13] turned out to be 14%. Besides, the inhibition of growth at 5000 µg/mL in data set [14] (5 mg/ml) turned out to be 0%. For the same compound, the inhibition of growth at 10000 µg/mL in data set [14] came out at 5%.

With `c1ccc(C(=NNc2ccc3ccccc3n2)c2ccccn2)cc1` [PH 22-15, 2-benzoylpyridine-2'-quinolylhydrazone], the MIC was found to be 18.5 µM in data set [10] (M. avium Patient str.); 1.2 µM (≈ 0.389 µg/mL) in data set [4]; 0.97 µM (≈ 0.315 µg/mL) in data set [7]; 4.6 µM (≈ 1.49 µg/mL) in [8] (setting [16]); 3.1 µM (≈ 1.01 µg/mL) in [9] (setting [17]). For the same compound, the IC50 in data set [3] amounted to 570 nM; in [6], 1530 nM.

Consider `CCC(=NNc1nncc2ccccc12)c1ccccn1` [PH 22-25, ethyl-2-pyridylketone-1'-phthalazinylhydrazine], for which the IC50 in [1] came to 300 nM; in [2] it was 400 nM; in data set [3], 104 nM; in data set [6] it was 194 nM. For the same compound, the IC90 in data set [1] came out at 450 nM; in data set [2], 700 nM. The MIC in data set [4] was 2.7 µM (≈ 0.749 µg/mL); in data set [7] it was 36 µM (≈ 9.98 µg/mL); in [8] (setting [16]), 101 µM (≈ 28 µg/mL); in [9] (setting [17]), 10.8 µM (≈ 3 µg/mL).

`COc1cc(Cc2cnc(N)nc2N)cc(OC)c1Br` [Brodimoprim, brodimoprim, reference compound]: the MIC in data set [10] (M. avium Patient str., values marked *) is more than 100 µg/mL; in [4] it was 80 µM (≈ 27.1 µg/mL); in data set [7] it was 94 µM (≈ 31.9 µg/mL); in data set [8] (setting [16]), 18 µM (≈ 6.11 µg/mL). Besides, in data set [13], the “% Inhibition” value is reported as 3%.

As to `[H]/N=C(/N)N[C@H]1[C@H](O)[C@@H](O)[C@H](O[C@@H]2O[C@@H](C)[C@](O)(C=O)[C@H]2O[C@@H]2O[C@@H](CO)[C@H](O)[C@@H](O)[C@@H]2NC)[C@@H](N/C(N)=N\[H])[C@@H]1O` [Streptomycin], in data set [5] (setting [15]), the MIC worked out at 55 µM (≈ 32 µg/mL).
